{"source": "patent US20190070128A1", "about": "“USE OF CANNABIDIVARIN IN THE TREATMENT OF AUTISM SPECTRUM DISORDER, ASSOCIATED DISORDERS AND SCHIZOPHRENIA” (GW Research Limited, priority 2016, published 2019)", "key": {"[1]": {"tested_on": "MeCP2 KO mice", "test": "symptom scoring in MeCP2 KO mice", "type": "in vivo, mouse", "description": "Starting from PND 28, mice received a daily intraperitoneal injection of CBDV (or vehicle) at the dose of 2, 20 and 200 mg/kg. Animals were then scored every other day to evaluate the effect of CBDV treatment on motor symptoms (hindlimb clasping, gait, mobility) as well as neurological signs and general conditions (breathing abnormalities, tremors and general condition) present in MeCP2 knockout (KO) mice.\nEach of the six symptoms was scored from 0 to 2 (0 corresponds to the symptom being absent or the same as in the wild type (WT) animal; 1 when the symptom was present; 2 when the symptom was severe).\nMobility: the mouse is observed when placed on bench, then when handled gently. 0 =as WT. 1=reduced movement when compared with WT: extended freezing period when first placed on bench and longer periods spent immobile. 2=no spontaneous movement when placed on the bench; mouse can move in response to a gentle prod or a food pellet placed nearby.\nGait: 0=as WT. 1=hind legs are spread wider than WT when walking or running with reduced pelvic elevation, resulting in a ‘waddling’ gait. 2=more severe abnormalities: tremor when feet are lifted, walks backward or ‘bunny hops’ by lifting both rear feet at once.\nHindlimb clasping: mouse observed when suspend by holding base of the tail. 0=legs splayed outward. 1=hindlimbs are drawn toward each other (without touching) or one leg is drawn into the body. 2=both legs are pulled in tightly, either touching each other or touching the body.\nTremor: mouse observed while standing on the flat palm of the hand. 0=no tremor. 1=intermittent mild tremor. 2=continuous tremor or intermittent violent tremor.\nBreathing: movement of flanks observed while animal is standing still. 0=normal breathing. 1=periods of regular breathing interspersed with short periods of more rapid breathing or with pauses in breathing. 2=very irregular breathing-gasping or panting.\nGeneral condition: mouse observed for indicators of general well-being such as coat condition, eyes and body stance. 0=clean shiny coat, clear eyes, and normal stance. 1=eyes dull, coat dull/un-groomed, and somewhat hunched stance. 2=eyes crusted or narrowed, piloerection, and hunched posture."}, "[2]": {"tested_on": "Fmr1 KO and WT mice", "test": "susceptibility to audiogenic seizures in Fmr1 KO and WT mice (PND21)", "type": "in vivo, mouse", "conditions": "for audiogenic seizures: FXS mice", "description": "This trait was evaluated in PND21 mice after acute administration of the compounds or its vehicle, 30 min before starting the procedure. To measure audiogenic seizure sensitivity mice were placed individually into a novel environment, a glass cylinder (40 cm high, 16 cm diameter) and allowed to explore for 1 min. Next, a bell (100 dB) was rung for 30 sec and seizure activity scored according to the following scale: no response, 0; wild running, 1; clonic seizure, 2; tonic seizure, 3; status epilepticus/respiratory arrest/death, 4.\nOn postnatal day 21 (PND21) WT and Fmr1 KO mice were injected with CBDV (2, 10, 20 or 100 mg/kg) or vehicle, 30 min before exposure to a bell ring (100 dB). Mice exposed to this noise for 30 sec ceased from their normal exploratory behaviour and reacted with gradually to wild-running, clonic seizure, tonic seizure or death. The maximum response was annotated for each mouse as detailed in Table 2 below. A score was calculated according to the severity of the symptoms as explained in the Methods section."}, "[3]": {"conditions": "WT, CBDV 2 mg/kg, n = 6, acute (30 min)"}, "[4]": {"conditions": "WT, CBDV 10 mg/kg, n = 5, acute (30 min)"}, "[5]": {"conditions": "WT, CBDV 20 mg/kg, n = 6, acute (30 min)"}, "[6]": {"conditions": "WT, CBDV 100 mg/kg, n = 6, acute (30 min)"}}, "note": "Entries after “also recorded” stand apart in the source; their conditions may differ.", "data": [{"compound": "C=C(C)[C@@H]1CCC(C)=C[C@H]1c1c(O)cc(CCC)cc1O", "note": "[CBDV, Cannabidivarin]", "values": [{"measurement": "mobility", "setting": "[1]", "value": "reached statistical significance only at PND 64"}, {"measurement": "breathing", "setting": "[1]; 2 mg/kg, PND 56 to 60", "value": "significantly improve"}, {"measurement": "tremors", "setting": "[1]; 2 mg/kg, PND 63", "value": "still protective"}, {"measurement": "total symptom score", "setting": "[1]; 2 mg/kg, every time point (PND 45, 47, 49, 55, 56, 57, 58, 60 and 64)", "value": "significantly improved"}, {"measurement": "general conditions (coat and eyes conditions)", "setting": "[1]; 20 mg/kg, PND 52", "value": "significantly effective only at the earlier time point"}, {"measurement": "hindlimb clasping", "setting": "[1]; 200 mg/kg", "value": "did not significantly affect"}, {"measurement": "gait", "setting": "[1]; 200 mg/kg, PND 53 to 57", "value": "significantly improved"}, {"measurement": "tremors", "setting": "[1]; 200 mg/kg, PND 55 and 63", "value": "still able to reduce tremors"}, {"measurement": "breathing", "setting": "[1]; 200 mg/kg, PND 57 and 60", "value": "effective"}, {"measurement": "total symptom score", "setting": "[1]; 200 mg/kg, from PND 47 until PND 58", "value": "beneficial effect"}, {"measurement": "general conditions (coat and eyes conditions)", "setting": "[1]; 2 and 200 mg/kg, PND 52-64", "value": "significantly improved"}, {"measurement": "tremors", "setting": "[1]; all three doses, PND 45-49", "value": "significantly delaying and reducing"}, {"measurement": "total symptom score: appearance of the phenotype", "setting": "[1]; all three doses, vs KO-vehicle", "value": "delay and attenuate"}, {"measurement": "hindlimb clasping", "setting": "[1]; lower doses, PND 47 and 49", "value": "significantly attenuate"}, {"measurement": "audiogenic seizures, maximum response: Clonic seizure", "setting": "[2]; 2 mg/kg, 0.5 h", "value": 0}, {"measurement": "audiogenic seizures, maximum response: No response", "setting": "[2]; 2 mg/kg, 0.5 h", "value": 2}, {"measurement": "audiogenic seizures, maximum response: Tonic seizure", "setting": "[2]; 2 mg/kg, 0.5 h", "value": 2}, {"measurement": "audiogenic seizures, maximum response: Wild running", "setting": "[2]; 2 mg/kg, 0.5 h", "value": 1}, {"measurement": "audiogenic seizures, maximum response: Clonic seizure", "setting": "[2]; 10 mg/kg, 0.5 h", "value": 0}, {"measurement": "audiogenic seizures, maximum response: No response", "setting": "[2]; 10 mg/kg, 0.5 h", "value": 0}, {"measurement": "audiogenic seizures, maximum response: Tonic seizure", "setting": "[2]; 10 mg/kg, 0.5 h", "value": 2}, {"measurement": "audiogenic seizures, maximum response: Wild running", "setting": "[2]; 10 mg/kg, 0.5 h", "value": 3}, {"measurement": "audiogenic seizures, maximum response: Clonic seizure", "setting": "[2]; 20 mg/kg, 0.5 h", "value": 0}, {"measurement": "audiogenic seizures, maximum response: No response", "setting": "[2]; 20 mg/kg, 0.5 h", "value": 2}, {"measurement": "audiogenic seizures, maximum response: Tonic seizure", "setting": "[2]; 20 mg/kg, 0.5 h", "value": 2}, {"measurement": "audiogenic seizures, maximum response: Wild running", "setting": "[2]; 20 mg/kg, 0.5 h", "value": 1}, {"measurement": "audiogenic seizures, maximum response: Clonic seizure", "setting": "[2]; 100 mg/kg, 0.5 h", "value": 0}, {"measurement": "audiogenic seizures, maximum response: No response", "setting": "[2]; 100 mg/kg, 0.5 h", "value": 5}, {"measurement": "audiogenic seizures, maximum response: Tonic seizure", "setting": "[2]; 100 mg/kg, 0.5 h", "value": 0}, {"measurement": "audiogenic seizures, maximum response: Wild running", "setting": "[2]; 100 mg/kg, 0.5 h", "value": 0}, {"measurement": "audiogenic seizures, maximum response: Death", "setting": "[2]; FXS (Fmr1 KO), CBDV 2 mg/kg, n = 5, acute (30 min)", "value": 0}, {"measurement": "audiogenic seizures, maximum response: Death", "setting": "[2]; FXS (Fmr1 KO), CBDV 10 mg/kg, n = 5, acute (30 min)", "value": 0}, {"measurement": "audiogenic seizures, maximum response: Death", "setting": "[2]; FXS (Fmr1 KO), CBDV 20 mg/kg, n = 5, acute (30 min)", "value": 0}, {"measurement": "audiogenic seizures, maximum response: Death", "setting": "[2]; FXS (Fmr1 KO), CBDV 100 mg/kg, n = 5, acute (30 min)", "value": 0}, {"measurement": "audiogenic seizures", "setting": "[2]; 100 mg/kg acute, 100 mg/kg", "value": "remained seizure free; also recorded: completely eliminate the seizures"}, {"measurement": "audiogenic seizures", "setting": "[2]; lower doses", "value": "seizures of varying severity"}, {"measurement": "audiogenic seizures, maximum response: Clonic seizure", "setting": "[2]; [3]", "value": 0}, {"measurement": "audiogenic seizures, maximum response: Death", "setting": "[2]; [3]", "value": 0}, {"measurement": "audiogenic seizures, maximum response: No response", "setting": "[2]; [3]", "value": 6}, {"measurement": "audiogenic seizures, maximum response: Tonic seizure", "setting": "[2]; [3]", "value": 0}, {"measurement": "audiogenic seizures, maximum response: Wild running", "setting": "[2]; [3]", "value": 0}, {"measurement": "audiogenic seizures, maximum response: Clonic seizure", "setting": "[2]; [4]", "value": 0}, {"measurement": "audiogenic seizures, maximum response: Death", "setting": "[2]; [4]", "value": 0}, {"measurement": "audiogenic seizures, maximum response: No response", "setting": "[2]; [4]", "value": 5}, {"measurement": "audiogenic seizures, maximum response: Tonic seizure", "setting": "[2]; [4]", "value": 0}, {"measurement": "audiogenic seizures, maximum response: Wild running", "setting": "[2]; [4]", "value": 0}, {"measurement": "audiogenic seizures, maximum response: Clonic seizure", "setting": "[2]; [5]", "value": 0}, {"measurement": "audiogenic seizures, maximum response: Death", "setting": "[2]; [5]", "value": 0}, {"measurement": "audiogenic seizures, maximum response: No response", "setting": "[2]; [5]", "value": 5}, {"measurement": "audiogenic seizures, maximum response: Tonic seizure", "setting": "[2]; [5]", "value": 0}, {"measurement": "audiogenic seizures, maximum response: Wild running", "setting": "[2]; [5]", "value": 1}, {"measurement": "audiogenic seizures, maximum response: Clonic seizure", "setting": "[2]; [6]", "value": 0}, {"measurement": "audiogenic seizures, maximum response: Death", "setting": "[2]; [6]", "value": 0}, {"measurement": "audiogenic seizures, maximum response: No response", "setting": "[2]; [6]", "value": 6}, {"measurement": "audiogenic seizures, maximum response: Tonic seizure", "setting": "[2]; [6]", "value": 0}, {"measurement": "audiogenic seizures, maximum response: Wild running", "setting": "[2]; [6]", "value": 0}]}]}
